We go through two molecules from patent US20130266636A1, “METHODS FOR BLOCKING CELL PROLIFERATION AND TREATING DISEASES AND CONDITIONS RESPONSIVE TO CELL GROWTH INHIBITION” (THE REGENTS OF THE UNIVERSITY OF CALIFORNIA, priority 2010, published 2013).

Test [1] concerns human lung (A549) carcinoma cell line. The test can be described thus: Cell viability assay in A549 cells. The class given is cell-based.
Test [2] concerns human breast (T47D) carcinoma cell line. The test can be described thus: Cell viability assay in T47D cells. Type of test: cell-based.
Test [3] relates to human breast (MDA-MB-231) carcinoma cell line. The test can be described thus: Cell viability assay in MDA-MB-231 cells. The class given is cell-based.
Test [4] concerns the target RAF dimerization (BRAF and CRAF) (Homo sapiens, UniProt P04049). The test can be described thus: RAF dimerization, immunoblot of BRAF and CRAF immunoprecipitates from XPA-1 cells. The class given is cell-based. On the set-up: immunoblot analysis of BRAF and CRAF immunoprecipitates from XPA-1 cells; endogenous in cells; host or cells: XPA-1. How it is done: (§1) FIGS. 6 and 7 illustrate immunoblot analysis of CRAF immunoprecipitated from XPA-1 cells treated with KG5 and KG38.
FIG. 14 illustrates immunoblot analysis of BRAF and CRAF immunoprecipitates from XPA-1 cells treated with PD0325901, Sorafenib, L-779450, PLX4720, KG5 or KG1.
(§2) Immunoprecipitation and Immunoblot Analysis Cells were lysed in either NP40 lysis buffer (150 mM NaCl, 50 mM Tris Base pH 7.4, 1% NP40) or RIPA buffer (50 mM Tris pH 7.4, 100 mM NaCl, 0.1% SDS) supplemented with complete protease inhibitor mixture (Roche), 50 mM NaF and 1 mM Na3VO4 and centrifuged at 13,000×g for 10 min at 4° C. Protein concentration was determined by BCA assay. […] of protein were immunoprecipitated with […] of anti-Flag (Sigma), anti-CRAF (BD Pharmingen), anti-Plk1 (Abcam), anti-γ-Tubulin (sigma) or anti-cenpF (Santa Cruz) antibodies overnight at 4° C. followed by capture with 25 μl of protein A/G (Pierce). Beads were washed five times, eluted in boiling Laemmli buffer, resolved on 10% SDS-PAGE and immunoblotting was performed with anti-Plk1 antibody (Abcam), anti-CRAF antibody (BD Pharmingen), anti-Aurora A (Abcam), anti-phospho-S338 CRAF (Cell Signaling), anti-phospho-T210 Plk1 or anti-phospho-T288 Aurora A (Cell signaling) diluted 1:1000. For immunoblot analysis, […] of protein was boiled in […]

In test [5] the target is T1, CRAF (Homo sapiens, UniProt P04049). Put plainly: Phospho-S338 CRAF immunoblot in XPA-1 cells. The class given is cell-based. On the set-up: total CRAF and total MEK of lysates from XPA-1 cells treated with PD0325901, Sorafenib, L-779450, PLX4720, KG5 or KG1; endogenous in cells; host or cells: XPA-1. How it is done:
as §1
FIG. 13 illustrates immunoblot analysis of phospho-5338 CRAF, phospho-MEK, total CRAF and total MEK of lysates from XPA-1 cells treated with PD0325901, Sorafenib, L-779450, PLX4720, KG5 or KG1.
as §2
Target sequence in this assay (P04049 whole entry): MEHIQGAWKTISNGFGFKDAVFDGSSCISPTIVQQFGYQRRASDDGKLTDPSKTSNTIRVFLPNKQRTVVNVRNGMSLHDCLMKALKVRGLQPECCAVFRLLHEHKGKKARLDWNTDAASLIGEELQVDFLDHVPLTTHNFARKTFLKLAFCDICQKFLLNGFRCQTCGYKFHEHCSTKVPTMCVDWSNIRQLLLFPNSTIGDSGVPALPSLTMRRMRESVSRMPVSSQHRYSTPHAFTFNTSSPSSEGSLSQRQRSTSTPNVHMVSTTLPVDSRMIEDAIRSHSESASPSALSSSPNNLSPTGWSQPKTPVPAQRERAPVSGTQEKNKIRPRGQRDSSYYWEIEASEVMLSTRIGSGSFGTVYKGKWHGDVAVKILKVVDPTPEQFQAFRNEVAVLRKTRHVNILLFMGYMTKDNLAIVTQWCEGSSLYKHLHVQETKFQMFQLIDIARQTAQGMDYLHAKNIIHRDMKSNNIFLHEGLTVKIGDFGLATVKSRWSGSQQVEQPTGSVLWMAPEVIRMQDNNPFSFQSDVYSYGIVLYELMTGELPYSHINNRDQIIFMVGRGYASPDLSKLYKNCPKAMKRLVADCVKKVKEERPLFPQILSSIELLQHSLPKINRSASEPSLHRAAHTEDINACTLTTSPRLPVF

The test system of test [6] is A549 cells. Put plainly: Cell proliferation assay in A549 cells. The class given is cell-based, human.
The target in test [7] is T1, CRAF. Particulars: 293H cells overexpressing catC, indicated amounts for 1 h; cited from earlier work.
Target sequence in this assay (P04049 305-648 limits assumed, species assumed): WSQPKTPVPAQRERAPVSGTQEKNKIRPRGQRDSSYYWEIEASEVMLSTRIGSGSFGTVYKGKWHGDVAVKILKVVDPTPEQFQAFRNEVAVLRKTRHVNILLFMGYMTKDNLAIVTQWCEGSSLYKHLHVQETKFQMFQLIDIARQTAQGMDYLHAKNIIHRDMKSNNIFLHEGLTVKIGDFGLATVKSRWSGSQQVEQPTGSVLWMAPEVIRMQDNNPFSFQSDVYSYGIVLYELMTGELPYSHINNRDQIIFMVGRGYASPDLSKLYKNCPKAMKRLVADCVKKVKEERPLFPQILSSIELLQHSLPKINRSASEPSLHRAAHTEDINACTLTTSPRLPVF

RAF dimerization (BRAF and CRAF), sequence (P04049 whole entry): as the sequence (P04049 whole entry) above

Regarding `CSc1nc(N)cc(Oc2ccc(-c3cnc(Nc4cccc(C(F)(F)F)c4)[nH]3)cc2)n1` [K38-B], the cell viability entry in test [1] (A549), in test [2] (T47D) and in test [3] (MDA-MB-231) was “decrease cell viability” in each case. Also, the “potency relative to KG5 (cell viability EC50s)” value in test [1] (A549), in test [2] (T47D) and in test [3] (MDA-MB-231) was “more potent than KG5” in each case. Besides, the EC50 result in test [1] (A549 lung cancer cells), in test [2] (T47D breast cancer cells) and in test [3] (MDA-MB-231 breast cancer cell viability assays) was “approach picomolar (pM) EC50s” throughout. The RAF dimerization result in test [4] is “prevent RAF dimerization”. Moreover, in test [5], the “serine 338 phosphorylation on CRAF” value was “prevent”.

As to `CCCS(=O)(=O)Nc1ccc(F)c(C(=O)c2c[nH]c3ncc(Cl)cc23)c1F` [PLX4720], the cell proliferation result in test [6] is listed as “induce proliferation”. For the same molecule, the “phosphorylation at S338 (pS338-CRAF immunoblot)” value in test [7] was “steadily increased”.
